ChEMBL document CHEMBL6096739, “The Myxobacterial Genus Archangium: A Prolific and Underexploited Source of Bioactive Secondary Metabolites” (J Med Chem, 2025)
≈ marks a conversion by molar mass, not a printed value. Numbered stars: 1 amine (or outer) side, 2 acyl side, 3 side chain; on linkers, the order of the positions; unused ones are H or OH. Square brackets hold non-standard residues; d marks the D form. Peptide text beside a SMILES is read from it. X1 = COc1cccc2[nH]c(C)c(C[C@H](N[*:1])C(=O)[*:2])c12; dAla(ψthiazole) = C[C@@H](N[*:1])c1nc(C(=O)[*:2])cs1; Trp(4-OMe) = COc1cccc2[nH]cc(C[C@H](N)C(=O)O)c12; X2 = O=C(c1csc([C@@H](CO)N[*:1])n1)[*:2]; GlyΨ(Thz) = O=C(c1csc(CN[*:1])n1)[*:2]; dAbu = CC[C@@H](N)C(=O)O; Dha = C=C(N)C(=O)O; Sar = CNCC(=O)O

What was measured:
[1] = test system: KB; assay: Cytotoxicity against human KB cells assessed as reduction in cell viability measured after 72 hrs by MTT assay; type: functional, cell-based
[2] = test system: Metschnikowia pulcherrima; assay: Antifungal activity against Metschnikowia pulcherrima DSM 70321; type: functional
[3] = test system: Botrytis cinerea; assay: Antifungal activity against Botrytis cinerea; type: functional
[4] = test system: Globisporangium debaryanum; assay: Antifungal activity against Pythium debaryanum DSM 62946; type: functional
[5] = Toxicity in po dosed rat assessed as lethal dose; type: organism-based; parameters: unit not given here; details: in vivo
[6] = test system: U-937; assay: Cytotoxicity activity against human U-937 cells assessed as reduction in cell viability measured after 24 hrs by CCK-8 assay; type: functional, cell-based
[7] = test system: HCT-116; assay: Cytotoxicity against human HCT-116 cells assessed as reduction in cell growth measured after 72 hrs by MTT assay; type: functional, cell-based; details: HCT-116, 72 h
[8] = Cytotoxicity against mouse L929 cells assessed reduction in cell viability incubated for 24 hrs by MTT assay; type: toxicity, cell-based
[9] = test system: Pseudomonas aeruginosa; assay: Antibacterial activity against Pseudomonas aeruginosa ATCC 27853 assessed as bacterial growth inhibition; type: functional, organism-based
[10] = test system: Clostridium perfringens; assay: Antibacterial activity against Clostridium perfringens assessed as bacterial growth inhibition after 24 hrs by microdilution method; type: functional

C=C1NC(=O)[C@@H](C)NC(=O)CNC(=O)[C@H](Cc2c[nH]c3cccc(OC)c23)NC(=O)[C@H](Cc2c[nH]c3ccccc23)NC(=O)c2csc(n2)[C@@H](CO)NC(=O)CN(C)C1=O (cyclo([Dha][Sar][X2]W[Trp(4-OMe)]G[dA]))
IC50 [1]: 5 nM

O=Cc1ccnc2ccccc12
MIC [2]: < 1 µg/mL

COC(=O)/C=C(/OC)[C@H](C)[C@H](/C=C/c1csc(-c2csc(C3(C)CO3)n2)n1)OC (some centres not stated)
MIC [3]: 0.04 µg/mL (≈ 0.0916 µM) | MIC [4]: 0.0947 µM (≈ 0.0413 µg/mL) | MIC [2]: 0.04 µg/mL (≈ 0.0916 µM)

C/C=C1/NC(=O)[C@@H]2CSC(=N2)[C@@H]2CCCN2C(=O)[C@@H](CC(C)C)NC(=O)[C@H](C)NC(=O)[C@@H](O)COC(=O)[C@H](C(C)C)N(C)C(=O)[C@H]([C@@H](C)O)NC(=O)[C@@H]2CCCN2C1=O
LD50 [5]: 2.3

CC[C@H](C)[C@H](NC(=O)[C@H]1CCCCN1C)C(=O)N(COC(=O)CC(C)C)[C@H](C[C@@H](OC(C)=O)c1nc(C(=O)N[C@@H](Cc2ccccc2)C[C@H](C)C(=O)O)cs1)C(C)C [TUBULYSIN D]
IC50 ([6]; Homo sapiens, U-937, 24 h): 0.005 nM | IC50 [7]: 0.003 nM

C=C1NC(=O)[C@@H](C)NC(=O)CNC(=O)[C@H](Cc2c[nH]c3cccc(OC)c23)NC(=O)[C@H](Cc2c[nH]c3ccccc23)NC(=O)c2csc(n2)CNC(=O)CN(C)C1=O (cyclo([Dha][Sar][GlyΨ(Thz)]W[Trp(4-OMe)]G[dA]))
IC50 [1]: 5 nM

OCc1ccnc2ccccc12
MIC [2]: < 1 µg/mL

CC1=C(/C=C/C=C\C=C\[C@@H](C)[C@@H](O)/C(C)=C/CC(C)C)OC(C)(O)C1=O (some centres not stated)
IC50 at 24 h [8]: 1000 nM

O/N=C\c1ccnc2ccccc12
MIC [2]: < 1 µg/mL

COCC(C)C1=NC(c2nc(/C=C/[C@H](OC)[C@@H](C)/C(=C\C(=O)OC)OC)cs2)CS1 (some centres not stated)
MIC [3]: 0.04 µg/mL (≈ 0.088 µM) | MIC [4]: 0.0947 µM (≈ 0.0431 µg/mL) | MIC [2]: 0.04 µg/mL (≈ 0.088 µM)

COC(=O)/C=C(/OC)[C@H](C)[C@H](/C=C/c1csc(C2CSC(C(C)C)=N2)n1)OC (some centres not stated)
MIC [3]: 0.04 µg/mL (≈ 0.0942 µM) | MIC [4]: 0.0947 µM (≈ 0.0402 µg/mL) | MIC [2]: 0.04 µg/mL (≈ 0.0942 µM)

CC[C@H](C)[C@H](NC(=O)[C@H]1CCCCN1C)C(=O)N(COC(=O)C=C(C)C)[C@H](C[C@@H](OC(C)=O)c1nc(C(=O)N[C@@H](Cc2ccc(O)cc2)C[C@H](C)C(=O)O)cs1)C(C)C
IC50 ([6]; Homo sapiens, U-937, 24 h): 0.005 nM

O=C(CO)c1c[nH]c2ccccc12
MIC [2]: < 1 µg/mL

C=C(NC(=O)/C(C)=C/C=C\CCCCCC(C)C)C(=O)N/C(=C\OC)C(=O)OC
IC50 at 24 h [8]: 3100 nM

C=C(NC(=O)/C(C)=C/C=C\CCCCCCC)C(=O)N/C(=C\OC)C(=O)OC
IC50 at 24 h [8]: 3100 nM

O/N=C/Cc1c[nH]c2ccccc12
MIC [2]: < 1 µg/mL

CCC(=O)OCN(C(=O)[C@@H](NC(=O)[C@H]1CCCCN1C)[C@@H](C)CC)[C@H](C[C@@H](OC(C)=O)c1nc(C(=O)N[C@@H](Cc2ccccc2)C[C@H](C)C(=O)O)cs1)C(C)C
IC50 ([6]; Homo sapiens, U-937, 24 h): 0.005 nM

CCCC(=O)OCN(C(=O)[C@@H](NC(=O)[C@H]1CCCCN1C)[C@@H](C)CC)[C@H](C[C@@H](OC(C)=O)c1nc(C(=O)N[C@@H](Cc2ccc(O)cc2)C[C@H](C)C(=O)O)cs1)C(C)C [TUBULYSIN B]
IC50 ([6]; Homo sapiens, U-937, 24 h): 0.005 nM

CC[C@H](C)[C@H](NC(=O)[C@H]1CCCCN1C)C(=O)N(COC(=O)CC(C)C)[C@H](C[C@@H](OC(C)=O)c1nc(C(=O)N[C@@H](Cc2ccc(O)cc2)C[C@H](C)C(=O)O)cs1)C(C)C [TUBULYSIN-A]
IC50 ([6]; u-937): 0.005 nM

C=C1NC(=O)[C@@H](C)NC(=O)CNC(=O)[C@H](Cc2c[nH]c3cccc(OC)c23)NC(=O)[C@H](Cc2c[nH]c3ccccc23)NC(=O)c2csc(n2)[C@@H](C)NC(=O)CN(C)C1=O (cyclo(W[Trp(4-OMe)]G[dA][Dha][Sar][dAla(ψthiazole)]))
IC50 [1]: 5 nM

C=C1NC(=O)[C@@H](CC)NC(=O)CNC(=O)[C@H](Cc2c[nH]c3cccc(OC)c23)NC(=O)[C@H](Cc2c[nH]c3ccccc23)NC(=O)c2csc(n2)[C@@H](CO)NC(=O)CN(C)C1=O (cyclo([Dha][Sar][X2]W[Trp(4-OMe)]G[dAbu]))
IC50 [1]: 5 nM

C=C1NC(=O)[C@@H](CC)NC(=O)CNC(=O)[C@H](Cc2c[nH]c3cccc(OC)c23)NC(=O)[C@H](Cc2c[nH]c3ccccc23)NC(=O)c2csc(n2)[C@@H](C)NC(=O)CN(C)C1=O (cyclo([Dha][Sar][dAla(ψthiazole)]W[Trp(4-OMe)]G[dAbu]))
IC50 [9]: 0.05 µg/mL (≈ 0.0596 µM) | IC50 [1]: 5 nM

C=C(C)C1=NC(c2nc(/C=C/[C@H](OC)[C@@H](C)/C(=C\C(=O)OC)OC)cs2)CS1 (some centres not stated)
MIC [3]: 0.04 µg/mL (≈ 0.0947 µM) | MIC [4]: 0.0947 µM (≈ 0.04 µg/mL) | MIC [2]: 0.04 µg/mL (≈ 0.0947 µM)

CCC(=O)OCN(C(=O)[C@@H](NC(=O)[C@H]1CCCCN1C)[C@@H](C)CC)[C@H](C[C@@H](OC(C)=O)c1nc(C(=O)N[C@@H](Cc2ccc(O)cc2)C[C@H](C)C(=O)O)cs1)C(C)C
IC50 ([6]; Homo sapiens, U-937, 24 h): 0.005 nM

COC(=O)/C=C(/OC)[C@H](C)[C@H](/C=C/c1csc(C2CSC(C3(C)CO3)=N2)n1)OC (some centres not stated)
MIC [3]: 0.04 µg/mL (≈ 0.0912 µM) | MIC [4]: 0.0947 µM (≈ 0.0415 µg/mL) | MIC [2]: 0.04 µg/mL (≈ 0.0912 µM)

C/C=C1\NC(=O)[C@H]2CSC(=N2)[C@@H]2C[C@@H](C)N2C(=O)[C@@H](CC(C)C)NC(=O)[C@H](C)NC(=O)[C@@H](O)COC(=O)[C@H](C(C)C)N(C)C(=O)[C@H]([C@@H](C)O)NC(=O)[C@@H]2CCCCN2C1=O
LD50 [5]: 2.3

O=C(O)c1ccnc2ccccc12
MIC [2]: < 1 µg/mL

C=C1NC(=O)[C@@H](C)NC(=O)CNC(=O)[C@H](Cc2c(C)[nH]c3cccc(OC)c23)NC(=O)[C@H](Cc2c[nH]c3ccccc23)NC(=O)c2csc(n2)[C@@H](C)NC(=O)CN(C)C1=O (cyclo(W[X1]G[dA][Dha][Sar][dAla(ψthiazole)]))
IC50 [1]: 5 nM

C=C/C=C(\C)[C@@H](O)CC[C@@H](C)/C=C/[C@@H]1CC[C@@H](C)C(=O)CC(=O)N[C@@H](C)CCC(=O)[C@@H](C)[C@H](O)[C@@H](C)/C=C(\C)C(=O)O1
MIC [10]: 0.78 µg/mL (≈ 1.33 µM)

C=C(C)c1nc(-c2nc(/C=C/[C@H](OC)[C@@H](C)/C(=C\C(=O)OC)OC)cs2)cs1
MIC [3]: 0.04 µg/mL (≈ 0.0951 µM) | MIC [4]: 0.0947 µM (≈ 0.0398 µg/mL) | MIC [2]: 0.04 µg/mL (≈ 0.0951 µM)

C=C(NC(=O)/C(C)=C/C=C\CCCCC(C)C)C(=O)N/C(=C\OC)C(=O)OC
IC50 at 24 h [8]: 3100 nM

CCCC(=O)OCN(C(=O)[C@@H](NC(=O)[C@H]1CCCCN1C)[C@@H](C)CC)[C@H](C[C@@H](OC(C)=O)c1nc(C(=O)N[C@@H](Cc2ccccc2)C[C@H](C)C(=O)O)cs1)C(C)C
IC50 ([6]; Homo sapiens, U-937, 24 h): 0.005 nM

CC[C@H](C)[C@H](NC(=O)[C@H]1CCCCN1C)C(=O)N(COC(C)=O)[C@H](C[C@@H](OC(C)=O)c1nc(C(=O)N[C@@H](Cc2ccc(O)cc2)C[C@H](C)C(=O)O)cs1)C(C)C
IC50 ([6]; Homo sapiens, U-937, 24 h): 0.005 nM

N#CCc1c[nH]c2ccccc12
MIC [2]: < 1 µg/mL

COC(=O)/C=C(/OC)[C@H](C)[C@H](/C=C/c1csc(-c2csc(C(C)=O)n2)n1)OC
MIC [3]: 0.04 µg/mL (≈ 0.0947 µM) | MIC [4]: 0.0947 µM (≈ 0.04 µg/mL) | MIC [2]: 0.04 µg/mL (≈ 0.0947 µM)

C/C=C1/NC(=O)[C@@H]2CSC(=N2)[C@@H]2CCCN2C(=O)[C@@H](CC(C)C)NC(=O)[C@H](C)NC(=O)[C@@H](O)COC(=O)[C@H](C(C)C)N(C)C(=O)[C@H]([C@@H](C)O)NC(=O)[C@@H]2CCCCN2C1=O
LD50 [5]: 2.3

C/C1=C\C=C=CCCC/C=C/[C@H]2O[C@@H](C(=O)O[C@H](C)[C@H]1O)[C@@H](O)[C@@H]2O
MIC [10]: 2.5 µg/mL (≈ 7.13 µM)

C=C1NC(=O)[C@@H](CC)NC(=O)CNC(=O)[C@H](Cc2c(C)[nH]c3cccc(OC)c23)NC(=O)[C@H](Cc2c[nH]c3ccccc23)NC(=O)c2csc(n2)[C@@H](C)NC(=O)CN(C)C1=O (cyclo(W[X1]G[dAbu][Dha][Sar][dAla(ψthiazole)]))
IC50 [1]: 5 nM

CC[C@H](C)[C@H](NC(=O)[C@H]1CCCCN1C)C(=O)N(COC(C)=O)[C@H](C[C@@H](OC(C)=O)c1nc(C(=O)N[C@@H](Cc2ccccc2)C[C@H](C)C(=O)O)cs1)C(C)C
IC50 ([6]; Homo sapiens, U-937, 24 h): 0.005 nM

CC1=C(C[C@H](O)/C=C\C=C\[C@@H](C)[C@@H](O)/C(C)=C/CC(C)C)OC(C)(O)C1=O (some centres not stated)
IC50 at 24 h [8]: 1000 nM

C/C=C1\NC(=O)[C@H]2CSC(=N2)[C@@H]2C[C@@H](C)N2C(=O)[C@@H](CC(C)C)NC(=O)[C@H](C)NC(=O)[C@@H](O)COC(=O)[C@H](C(C)C)N(C)C(=O)[C@H]([C@@H](C)O)NC(=O)[C@@H]2CCCN2C1=O
LD50 [5]: 2.3
